According to the supplement of paper PMC13380429:

Legend:
Details in all cases: 72 h
Vero E6 [1] = experiment: relative viability EC50 (midpoint between 100% and the lowest measured viability); higher = less toxic
U2OS [2] = experiment: as above
Calu-3 [3] = experiment: as above
HepG2 [4] = experiment: as above
Caco-2 [5] = experiment: drug sensitivity score (DSS) for viability; higher = more toxic; extreme values may be limits of the assay
Vero E6 [6] = experiment: as above
U2OS [7] = experiment: as above
Calu-3 [8] = experiment: as above
HepG2 [9] = experiment: as above
Caco-2 [10] = experiment: cell viability relative to DMSO; higher = less toxic
Vero E6 [11] = experiment: as above
U2OS [12] = experiment: as above
Calu-3 [13] = experiment: as above
HepG2 [14] = experiment: as above
Caco-2 [15] = experiment: relative viability EC50 (midpoint between 100% and the lowest measured viability); higher = less toxic

Row | SMILES | relative viability EC50 (Vero E6 [1]) | relative viability EC50 (U2OS [2]) | relative viability EC50 (Calu-3 [3]) | relative viability EC50 (HepG2 [4]) | drug sensitivity score (Caco-2 [5]) | drug sensitivity score (Vero E6 [6]) | drug sensitivity score (U2OS [7]) | drug sensitivity score (Calu-3 [8]) | drug sensitivity score (HepG2 [9]) | cell viability (Caco-2 [10]; 1 nM) | cell viability (Caco-2 [10]; 10 nM) | cell viability (Caco-2 [10]; 100 nM) | cell viability (Caco-2 [10]; 1000 nM) | cell viability (Caco-2 [10]; 10000 nM) | cell viability (Vero E6 [11]; 1 nM) | cell viability (Vero E6 [11]; 10 nM) | cell viability (Vero E6 [11]; 100 nM) | cell viability (Vero E6 [11]; 1000 nM) | cell viability (Vero E6 [11]; 10000 nM) | cell viability (U2OS [12]; 1 nM) | cell viability (U2OS [12]; 10 nM) | cell viability (U2OS [12]; 100 nM) | cell viability (U2OS [12]; 1000 nM) | cell viability (U2OS [12]; 10000 nM) | cell viability (Calu-3 [13]; 1 nM) | cell viability (Calu-3 [13]; 10 nM) | cell viability (Calu-3 [13]; 100 nM) | cell viability (Calu-3 [13]; 1000 nM) | cell viability (Calu-3 [13]; 10000 nM) | cell viability (HepG2 [14]; 1 nM) | cell viability (HepG2 [14]; 10 nM) | cell viability (HepG2 [14]; 100 nM) | cell viability (HepG2 [14]; 1000 nM) | cell viability (HepG2 [14]; 10000 nM) | relative viability EC50 (Caco-2 [15])
1 | Cc1nc(C#Cc2ccnc(Cl)c2)c(C)n1-c1ccc(F)cc1 [basimglurant] | > 10 µM | > 10 µM | > 10 µM | > 10 µM | 3 | 0 | 0 | 0 | 1.4 | 101% | 95.2% | 101% | 90.5% | 66.5% | 106% | 101% | 96.9% | 102% | 91.3% | 91.4% | 96.1% | 101% | 91.9% | 93.2% | 88.4% | 90.6% | 92.2% | 92.4% | 95.8% | 104% | 99.5% | 102% | 95.3% | 77.4% | 
2 | O[C@H]1[C@H](O)[C@@H](O)CN2CC[C@H](O)[C@H]12 [castanospermine] | > 10 µM |  | > 10 µM | > 10 µM | 0 | 0 |  | 0 | 0 | 100% | 99% | 106% | 98.2% | 100% | 97.4% | 99.3% | 91% | 102% | 91.8% |  |  |  |  |  | 102% | 96.6% | 96.9% | 103% | 104% | 101% | 99.3% | 102% | 110% | 97.5% | > 10 µM
3 | CO/N=C(\C(=O)N[C@@H]1C(=O)N2C(C(=O)O)=C(CSc3nc(=O)c(O)nn3C)CS[C@H]12)c1csc(N)n1 [ceftriaxone] | > 10 µM | > 10 µM | > 10 µM | > 10 µM |  | 0 | 0 | 0 | 0 |  |  |  |  |  | 96.6% | 102% | 96% | 106% | 95.5% | 100% | 94.2% | 94.5% | 95.7% | 97.2% | 92.7% | 94.5% | 95.2% | 92% | 105% | 93% | 96.7% | 96.5% | 97.3% | 97.9% | 
4 | C/C(=C\c1csc(C)n1)[C@@H]1C[C@@H]2O[C@]2(C)CCC[C@H](C)[C@H](O)[C@@H](C)C(=O)C(C)(C)[C@@H](O)CC(=O)O1 [epothilone-B] | 0.0026 µM | < 0.001 µM |  | < 0.001 µM | 24 | 29.5 | 33.1 | 19 | 37.2 | 79.8% | 54.2% | 47.6% | 52.8% | 50.6% | 77.6% | 48.9% | 29.9% | 35.7% | 45.4% | 50.3% | 39.9% | 23.9% | 30.7% | 44.3% | 91.8% | 66% | 53.8% | 54.7% | 59.3% | 52.3% | 29.7% | 18.4% | 19.8% | 32% | 0.0016 µM
5 | CCOc1ccccc1-n1c(C(C)N2CCN(C(=O)COc3ccc(Cl)cc3)CC2)nc2ccccc2c1=O (stereo unspecified) [erastin] | 2.92 µM |  | 1.67 µM | 2.27 µM | 3.5 | 5.1 |  | 7.8 | 6.9 | 103% | 94.8% | 96.9% | 97.1% | 43.4% | 96% | 99.4% | 95.8% | 97.2% | 15.5% |  |  |  |  |  | 113% | 97.4% | 109% | 81.3% | 13.5% | 96.6% | 102% | 109% | 89.8% | 5.5% | 2.76 µM
6 | C=C1CC[C@H](O)C/C1=C/C=C1\CCC[C@]2(C)[C@@H]([C@H](C)/C=C/[C@H](C)C(C)C)CC[C@@H]12 [ergocalciferol] | > 10 µM | > 10 µM | > 10 µM | > 10 µM |  | 0 | 0 | 0 | 0 |  |  |  |  |  | 102% | 105% | 96.2% | 93.6% | 101% | 99.3% | 99.6% | 96.2% | 100% | 94.3% | 86.5% | 89.2% | 80.2% | 108% | 104% | 114% | 99.3% | 112% | 97.5% | 93% | 
7 | NC(=O)CCCCC1CCSS1 (stereo unspecified) [lipoamide] | > 10 µM | > 10 µM |  | > 10 µM | 0 | 0 | 0 |  | 0 | 110% | 90.3% | 92.4% | 97.9% | 102% | 103% | 99.2% | 102% | 106% | 99.2% | 102% | 99.8% | 99.1% | 98.2% | 98% |  |  |  |  |  | 88.4% | 108% | 104% | 102% | 90.9% | > 10 µM
8 | CN1C(=O)CC(C)(c2ccccc2)C1=O (stereo unspecified) [methsuximide] | > 10 µM | > 10 µM |  | > 10 µM | 0 | 0 | 0 |  | 0 | 97.5% | 102% | 99.1% | 105% | 96.7% | 96.1% | 97.1% | 98.7% | 96.1% | 95.2% | 97.1% | 101% | 94% | 96.6% | 91.2% |  |  |  |  |  | 98.2% | 94.4% | 101% | 100% | 104% | > 10 µM
9 | CCCCCOc1ccc(-c2cc(-c3ccc(C(=O)N[C@H]4C[C@@H](O)[C@@H](O)NC(=O)[C@@H]5[C@@H](O)[C@@H](C)CN5C(=O)[C@H]([C@H](O)CC(N)=O)NC(=O)[C@H]([C@H](O)[C@@H](O)c5ccc(O)c(OS(=O)(=O)O)c5)NC(=O)[C@@H]5C[C@@H](O)CN5C(=O)[C@H]([C@@H](C)O)NC4=O)cc3)no2)cc1 [micafungin] | > 10 µM | > 10 µM | > 10 µM | > 10 µM |  | 0 | 0 | 0 | 0 |  |  |  |  |  | 99.2% | 101% | 106% | 97.2% | 92.9% | 104% | 102% | 103% | 101% | 99.4% | 106% | 108% | 98.3% | 99.4% | 115% | 98.4% | 117% | 106% | 81.8% | 109% | 
10 | O=C(Nc1ccc([N+](=O)[O-])cc1Cl)c1cc(Cl)ccc1O [niclosamide] | 3.34 µM |  | > 10 µM | 3.01 µM | 5.6 | 4.2 | 1.2 | 0.6 | 5.3 | 101% | 102% | 95.3% | 93.7% | 17.6% | 101% | 99.7% | 102% | 102% | 20% | 101% | 104% | 97.2% | 103% | 68.9% | 106% | 98.4% | 92.2% | 91.3% | 86.2% | 104% | 99.4% | 109% | 98% | 9.9% | 2.54 µM
11 | CCCCc1ccc2[nH]c(NC(=O)OC)nc2c1 [parbendazole] | 0.38 µM | 0.676 µM |  | 0.641 µM | 8.3 | 12 | 8.8 | 5.9 | 9.6 | 104% | 94.7% | 91.7% | 59.9% | 48.9% | 96% | 98.2% | 94.5% | 39% | 28.8% | 96.4% | 98% | 93.2% | 59.2% | 32.7% | 103% | 96.1% | 96.9% | 69.8% | 57.2% | 82.9% | 98.3% | 98.2% | 51.7% | 31.5% | 0.353 µM
12 | O=C1[C@H]2CCCC[C@H]2C(=O)N1CCCCN1CCN(c2nsc3ccccc23)CC1 [perospirone] | > 10 µM | > 10 µM | > 10 µM | > 10 µM | 3.4 | 0 | 0 | 0 | 2 | 86.7% | 87% | 91.8% | 92.9% | 65.9% | 104% | 98.7% | 102% | 101% | 107% | 96.2% | 99.7% | 104% | 92.9% | 92.8% | 94.1% | 101% | 99.3% | 98.7% | 89% | 97.4% | 88.9% | 89.1% | 89.1% | 86.1% | 
13 | O=C1C[C@@H]2OCC=C3CN4CC[C@]56c7ccccc7N1[C@H]5[C@H]2[C@H]3C[C@H]46 [strychnine] | > 10 µM | > 10 µM |  | > 10 µM | 3.7 | 0.9 | 0 |  | 1.7 | 97.8% | 91.1% | 83% | 85.6% | 90.2% | 102% | 98.8% | 98.3% | 87.1% | 88.7% | 97.2% | 101% | 96.8% | 103% | 95.8% |  |  |  |  |  | 113% | 93.7% | 106% | 83.1% | 96.3% | > 10 µM
14 | O=C1c2ccccc2-n2c1nc1ccccc1c2=O [tryptanthrin] | > 10 µM | > 10 µM |  | 2.94 µM | 0.4 | 0 | 0 |  | 3.5 | 101% | 107% | 110% | 104% | 79.7% | 104% | 99.6% | 101% | 95.7% | 96.9% | 96.5% | 97.7% | 101% | 102% | 97.7% |  |  |  |  |  | 88.7% | 87.5% | 90.7% | 98.2% | 40.5% | > 10 µM
15 | Cc1cc(CC(=O)O)n(C)c1C(=O)c1ccc(Cl)cc1 [zomepirac] | > 10 µM | > 10 µM | > 10 µM | > 10 µM | 7.3 | 0 | 0 | 0 | 0.1 | 94.4% | 97.7% | 75.3% | 74.4% | 77.8% | 105% | 94.6% | 104% | 94.4% | 93.7% | 96.6% | 101% | 92.9% | 97.7% | 99.6% | 94.7% | 99.6% | 97.4% | 94.3% | 103% | 88% | 84.9% | 84.7% | 101% | 91.6% | 
